Laboratory results published in US20260232812A1, “BIFUNCTIONAL MOLECULES FOR TARGETED PROTEIN DEGRADATION” (Amphista Therapeutics Limited, priority 2022, published 2026).

What was measured:
Type in all cases: cell-based
SMARCA2 = target: T1, SMARCA2 (Homo sapiens, UniProt P51531); test: SMARCA2 degradation, HeLa SMARCA2 HiBiT cells (Assay Protocol 1); details: 24 hours after compound addition
T1 construct: a HiBiT tag knocked in at the 3′ end of SMARCA2; host or cells: HeLa SMARCA2 HiBiT knock-in cells
T1 sequence (P51531 whole entry): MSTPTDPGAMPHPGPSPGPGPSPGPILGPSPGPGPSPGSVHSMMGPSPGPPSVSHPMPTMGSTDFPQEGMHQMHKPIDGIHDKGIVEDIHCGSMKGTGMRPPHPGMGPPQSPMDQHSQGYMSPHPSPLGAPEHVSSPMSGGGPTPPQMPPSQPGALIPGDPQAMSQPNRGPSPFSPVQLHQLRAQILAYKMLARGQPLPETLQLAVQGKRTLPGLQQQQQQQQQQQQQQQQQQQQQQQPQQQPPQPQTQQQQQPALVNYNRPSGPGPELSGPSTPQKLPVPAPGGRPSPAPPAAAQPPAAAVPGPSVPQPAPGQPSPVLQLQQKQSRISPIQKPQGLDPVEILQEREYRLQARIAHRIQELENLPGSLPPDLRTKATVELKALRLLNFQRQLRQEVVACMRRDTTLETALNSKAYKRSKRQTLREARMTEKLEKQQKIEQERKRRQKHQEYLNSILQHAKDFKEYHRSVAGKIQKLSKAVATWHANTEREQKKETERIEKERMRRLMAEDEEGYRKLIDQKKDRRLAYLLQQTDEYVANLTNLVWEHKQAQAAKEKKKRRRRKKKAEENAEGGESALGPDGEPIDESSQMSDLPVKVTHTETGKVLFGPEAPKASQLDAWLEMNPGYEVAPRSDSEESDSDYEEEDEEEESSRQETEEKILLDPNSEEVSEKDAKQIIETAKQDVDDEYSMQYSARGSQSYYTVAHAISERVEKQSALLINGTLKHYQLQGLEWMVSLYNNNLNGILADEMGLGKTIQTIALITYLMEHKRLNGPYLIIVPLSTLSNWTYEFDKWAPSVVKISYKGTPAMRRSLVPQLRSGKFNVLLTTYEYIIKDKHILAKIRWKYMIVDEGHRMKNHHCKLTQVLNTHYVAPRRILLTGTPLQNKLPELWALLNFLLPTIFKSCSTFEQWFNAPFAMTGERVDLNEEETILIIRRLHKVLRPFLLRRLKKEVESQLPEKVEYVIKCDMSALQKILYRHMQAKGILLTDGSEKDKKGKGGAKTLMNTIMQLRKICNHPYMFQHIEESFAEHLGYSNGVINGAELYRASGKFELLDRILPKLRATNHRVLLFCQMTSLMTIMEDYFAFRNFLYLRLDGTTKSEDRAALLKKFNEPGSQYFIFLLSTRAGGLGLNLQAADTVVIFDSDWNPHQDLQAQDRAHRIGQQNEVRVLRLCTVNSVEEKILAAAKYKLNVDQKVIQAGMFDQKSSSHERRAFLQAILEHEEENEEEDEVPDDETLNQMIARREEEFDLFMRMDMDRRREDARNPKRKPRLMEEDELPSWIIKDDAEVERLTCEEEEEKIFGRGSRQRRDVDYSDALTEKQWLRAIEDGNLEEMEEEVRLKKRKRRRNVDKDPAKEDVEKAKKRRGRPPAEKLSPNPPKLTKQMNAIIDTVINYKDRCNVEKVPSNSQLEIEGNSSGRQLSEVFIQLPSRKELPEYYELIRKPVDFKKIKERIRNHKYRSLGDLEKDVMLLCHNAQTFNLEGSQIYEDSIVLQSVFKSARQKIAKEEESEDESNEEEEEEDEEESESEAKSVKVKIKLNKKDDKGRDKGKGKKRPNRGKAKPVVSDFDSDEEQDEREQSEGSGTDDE
Description: Hela cells with a HiBiT tag knocked in at the 3′ end of SMARCA2 were purchased from Promega (Custom product) (1). HeLa SMARCA2 HiBiT transfected cells were treated with compounds at indicated concentrations using the FlexDrop IQ (Perkin Elmer). 24 hours after compound additions abundance of HiBiT tagged protein was quantified using NanoGlo HiBiT lytic detection system (Promega, N3050). Cell viability was measured using Cell Titre Glow cell viability assay (Promega, G9243). In each case luminescence was measured on a Pherastar platereader.

BRD9 [1] = target: T2, BRD9 (Homo sapiens, UniProt Q9H8M2); test: Assay Protocol 1 - Degradation of HiBit-BRD9 in HEK293; details: titration up to 10 μM
T2 sequence (Q9H8M2 1-597): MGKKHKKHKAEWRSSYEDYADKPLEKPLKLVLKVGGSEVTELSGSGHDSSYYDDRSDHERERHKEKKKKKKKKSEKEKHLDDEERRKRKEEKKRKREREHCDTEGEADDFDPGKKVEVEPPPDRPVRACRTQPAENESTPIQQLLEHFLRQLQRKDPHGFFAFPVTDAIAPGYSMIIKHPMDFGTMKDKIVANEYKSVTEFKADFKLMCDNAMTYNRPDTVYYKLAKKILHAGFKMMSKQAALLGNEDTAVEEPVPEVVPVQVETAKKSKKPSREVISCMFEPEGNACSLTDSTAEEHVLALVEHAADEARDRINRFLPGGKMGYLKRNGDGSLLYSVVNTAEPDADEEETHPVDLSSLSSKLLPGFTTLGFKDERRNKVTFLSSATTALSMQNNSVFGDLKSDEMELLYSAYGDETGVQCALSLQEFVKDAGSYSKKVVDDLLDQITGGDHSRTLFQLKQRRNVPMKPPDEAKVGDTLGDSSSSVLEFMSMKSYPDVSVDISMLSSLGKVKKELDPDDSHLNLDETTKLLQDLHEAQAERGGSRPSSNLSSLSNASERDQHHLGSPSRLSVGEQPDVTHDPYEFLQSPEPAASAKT
Description: Assay Protocol 1—Degradation of HiBit-BRD9 in HEK293
HEK293 stably expressing LgBit and containing a HiBit insertion for BRD9 were plated in 384-well tissue culture plates at a density of 8×10^3 per well in a volume of 36 μL and incubated overnight at 37° C. and 5% CO2. Wells were treated with test compounds (11 pt titration up to 10 μM) for 6 h prior to addition of Nano-Glo® Hibit Lytic buffer (1:50 substrate and 1:100 LgBit protein) and reading on a PheraSTAR. Degradation data was plotted and analysed using Prism 8 (Graphpad).

BRD9 [2] = target: T2, BRD9; test: Assay Protocol 2 - Degradation of BRD9 (IF) in MV4-11 cells; design: host or cells: MV4-11; details: Assay Protocol 2: BRD9 immunofluorescence, 24 hours
Description: Assay Protocol 2—Degradation of BRD9 (IF)
A suspension of MV4-11 cells (ATCC CRL-9591) was prepared in phenol red-free assay media (IMDM Thermo Scientific 21056023+10% FBS ATCC 302025) and cells were seeded at 20,000 cells per well (45 μL) in sterile black poly-d-lysine coated 384 well plates (Greiner 781948). Compounds were prepared at 1000× final concentration in DMSO, diluted 1:100 in assay media, and 5 μL compound was added to each well of the cell plate. Cells were incubated for 24 hours at 37° C. with 5% CO2. All the following incubations for immunofluorescence staining were at room temperature. 15 μL of 16% PFA was added to each well (3.7% final concentration) and the cells were fixed for 15 min then washed twice with DPBS. Cells were permeabilised with 0.1% Triton X-100 for 10 min, Triton X-100 was removed, then blocked with 1% BSA in DPBS for 1 hour. Cells were stained with 25 μL anti-BRD9 E4Q3F antibody (CST 48306) diluted 1:25600 in 1% BSA in DPBS for 2-3 hours. Wells were washed twice with DPBS then incubated with 25 μL of 1% BSA containing a 1:1000 dilution of Anti-rabbit Alexa Fluor™ 647 secondary antibody (Thermo Scientific A^21244) and 1 μg/mL Hoechst nuclear counter stain (Abcam ab228551) for 1 hour. Wells were washed twice with DPBS prior to imaging on a Perkin Elmer Operetta CLS with 10× air lens. Images were processed using Harmony High-Content Imaging and Analysis Software (Perkin Elmer) and the mean contrast ratio of Alexa Fluor™ 647 in central nuclei was used to quantify BRD9 protein levels. Data was further analysed using Dotmatics software and % BRD9 remaining was calculated by normalisation to average data from high and low control wells (cells treated with DMSO or 100 nM CFT-8634 respectively).

SMILES	Dmax (SMARCA2) [%]	also measured
CC(C)(C)/C=C(\C#N)C(=O)N1CCN(CC(=O)N2CCc3[nH]c4nnc(-c5ccccc5O)cc4c3C2)CC1 [SMARCA2e]	50 to 65	–
CC(C)C1CC(C(=O)N[C@@H]2CCCN(c3cc(-c4ccccc4O)nnc3N)C2)CN(C(=O)/C(C#N)=C/C(C)(C)C)C1 (some centres unmarked) [SMARCA2f]	50 to 65	–
COc1cc(-c2cn(C)c(=O)c(C)c2C)cc(OC)c1CN(C)C1CCN(C(=O)/C(C#N)=C/c2cccc(Br)n2)CC1 [BRD9z, (E/Z)-3-(6-bromopyridin-2-yl)-2-(4-((2,6-dimethoxy-4-(1,4,5-trimethyl-6-oxo-1,6-dihydropyridin-3-yl)benzyl)(methyl)amino)piperidine-1-carbonyl)acrylonitrile]	–	DC50 (BRD9 [1]; Assay Protocol 1: HiBit-BRD9 in HEK293, 6 h): < 25 nM; Dmax (BRD9 [1]; HEK293, Assay Protocol 1: HiBit-BRD9 in HEK293, 6 h): ≥ 70%; DC50 (BRD9 [2]): < 25 nM
CC(C)(C)/C=C(\C#N)C(=O)N1CCN(CC(=O)N[C@@H]2CCCN(c3cc(-c4ccccc4O)nnc3N)C2)CC1 [SMARCA2b]	50 to 65	–

Further lines, with some results ahead:

Dmax (SMARCA2) [%]	SMILES	also measured
50 to 65	N#C/C(=C\c1nccs1)C(=O)N1CCCC(C(=O)N[C@@H]2CCCN(c3cc(-c4ccccc4O)nnc3N)C2)C1 (some centres unmarked) [SMARCA2l]	–
50 to 65	COc1ccc(C2CC(C(=O)N[C@@H]3CCCN(c4cc(-c5ccccc5O)nnc4N)C3)CN(C(=O)/C(C#N)=C/c3ccn(C)n3)C2)cc1 (some centres unmarked) [SMARCA2i]	–
65 to 80	CC(C)[C@@H]1CN(C(=O)/C(C#N)=C/C(C)(C)C)C[C@H]1C(=O)N[C@@H]1CCCN(c2cc(-c3ccccc3O)nnc2N)C1 [SMARCA2j]	–
65 to 80	CC(C)(C)/C=C(\C#N)C(=O)N1C[C@@H](C(=O)N[C@@H]2CCCN(c3cc(-c4ccccc4O)nnc3N)C2)[C@H](C2CCCCC2)C1 [SMARCA2h]	–
65 to 80	CC(C)C1CC(C(=O)N[C@@H]2CCCN(c3cc(-c4ccccc4O)nnc3N)C2)CN(C(=O)/C(C#N)=C/c2nccs2)C1 (some centres unmarked) [SMARCA2g]	–
